Measured values reported in US6770478B2, “Erythrocytic cells and method for preserving cells” (The Regents of the University of California, priority 2000, dated 2004).
Several values for one entry are separate records, joined by “and”; a condition that tells them apart may be missing. Equal values may be shown once. Entries after “also recorded” stand apart in the source; their conditions may differ.

Tests used:
platelets [1] = conditions: platelets cryopreserved with DMSO; cited from earlier work
erythrocyte membranes = experiment: FTIR membrane phase transitions of intact erythrocytes (CH2 symmetric stretch around 2850 cm^-1)
mesenchymal stem cells [2] = experiment: Lucifer yellow CH loading of mesenchymal stem cells, viability by trypan blue exclusion; assay type: cell-based, human; conditions: LYCH loading over 3.5 hours, 37° C.
Description: Lucifer Yellow CH-Loading. […] The pellet was split between two treatments.

human platelets = experiment: Loading of platelets with trehalose, quantified by anthrone reaction; assay type: cell-based; conditions: 37° C., after 2 hours (rapid linear uptake)
Protocol: Loading of Platelets with Trehalose. Washed platelets in a concentration of 1-2 10^9 platelets/ml were incubated at various temperatures in the presence of 1-20 mg/ml trehalose. Incubation temperatures were chosen from 4° C. to 37° C. Incubation times were varied from 0.5 to 4 hours. After incubation the platelet solutions were washed in buffer A two times (by centrifugation at 14,000 RPM for 20 s in a table centrifuge). Platelet counts were obtained on a coulter counter. Platelets were pelleted (45 S at 14,000 RPM) and sugars were extracted from the pellet using 80% methanol. The samples were heated for 30 minutes at 80° C. […] The amount of trehalose in the platelets was quantified using the anthrone reaction (Umbreit et al., Mamometric and Biochemical Techniques, 5th Edition, 1972). […] Then the samples were cooled on ice and the absorbance was measured at 620 nm on a Perkin Elmer spectrophotometer. The amount of platelet associated trehalose was determined using a standard curve of trehalose.
Quantification of Trehalose and LYCH Concentration. Uptake was calculated for each sample as micrograms of trehalose or LYCH per platelet. The internal trehalose concentration was calculated assuming a platelet radius of 1.2 μm and by assuming that 50% of the platelet volume is taken up by the cytosol (rest is membranes). […]

mesenchymal stem cells [3] = experiment: Growth curves of mesenchymal stem cells in presence of 90 mM trehalose; assay type: cell-based, human
Protocol: Growth Curves. MSCs were plated into 12-welled plates at approximately the same seeding density used for T-185 flasks in standard Osiris protocols (5900 cells/cm^2 with fluid volume of 0.189 mL/cm^2). Three wells for each condition at each time point were trypsinized and counted. Data for cells grown in the presence of trehalose were lost for the first two time points. FIG. 13 is a graph illustrating growth curves for the mesenchymal stem cells in the presence or absence of 90 mM trehalose with the open triangle data representing cells grown in standard medium for 24 hours, after which 90 mM trehalose was added.

platelets [4] = experiment: Stability and morphology of platelets during trehalose incubation (microscopy, flow cytometric analysis); assay type: cell-based, human; conditions: 4 hours incubation at 37° C., 25 mM external trehalose
Protocol: The stability of the platelets during a 4 hours incubation period was studied using microscopy and flow cytometric analysis. […] No signs of microvesicle formation could be observed after 4 hours incubation, as can be judged by the stable relative proportion of microvesicle gated cells (less than 3%). The formation of microvesicles is usually considered as the first sign of platelet activation (Owners et al., Trans. Med. Rev., 8, 27-44, 1994). Characteristic antigens of platelet activation include: glycoprotein 53 (gp53, a lysosomal membrane marker), PECAM-1 (platelet endothelial cell adhesion molecule-1, an alpha granule constituent), and P-selection (an alpha granule membrane protein).

erythrocyte ghosts = experiment: FTIR thermotropic response of erythrocyte ghosts; assay type: cell-based, human; conditions: MβCD treated ghosts
Protocol: Cells were incubated at 37° C. for one hour in the presence of 10 mM methyl-β-cyclodextrin (MβCD) in order to remove cholesterol from the plasma membranes. Erythrocyte ghosts were prepared.
FTIR Spectroscopy and Sample Preparation. […] Intact cells were cooled to −5° C., kept at this temperature for 15 minutes, and then rewarmed to determine the phase transitions. […] Four scans were accumulated for each spectrum between 3600-900 cm^−1 at 4 cm^−1 resolution.
Inverted second derivative spectra were normalized on the lipid […] 2850 cm^−1. Band positions were determined as described previously. The wavenumber (cm^−1) of the CH2 symmetric stretching vibration was plotted as a function of temperature. […] For the protein studies, the spectral region between 1600 and 1500 cm^−1 selected.

[5] = Table III, Example 11, five blood donors, standard error, 10 mM MβCD

For `C[S+](C)[O-]` [DMSO, dimethyl sulfoxide], the “overall responsiveness of frozen thawed platelets to various agonists compared with fresh platelets” value (platelets [1]) is listed as “less than 35%”.
In the case of `CC(C)c1c(C(=O)Nc2ccccc2)c(-c2ccccc2)c(-c2ccc(F)cc2)n1CC[C@@H](O)C[C@@H](O)CC(=O)O` [LIPITOR], the “total wavenumber excursion (from −5 to 45° C.)” value (erythrocyte membranes; erythrocytes of a blood donor who used LIPITOR, other donors 0.8) is reported as roughly 1.5 cm⁻¹.
`NNC(=O)NN1C(=O)c2cc(S(=O)(=O)O)cc3c(N)c(S(=O)(=O)O)cc(c23)C1=O` [LYCH, lucifer yellow CH] showed a viability (mesenchymal stem cells [2]) of roughly 70%.
For `OC[C@H]1O[C@H](O[C@H]2O[C@H](CO)[C@@H](O)[C@H](O)[C@H]2O)[C@H](O)[C@@H](O)[C@@H]1O` [trehalose], the trehalose uptake (human platelets) was 3.3×10^−10 mol/m^2s, the “effect on cell count” value (mesenchymal stem cells [3]; after the third day) was “cell count started to drop significantly” and the “effect on growth of the cells” value (mesenchymal stem cells [3]; up to the third day) was “did not interfere with growth; also recorded: does not interfere with the growth and viability”. For the same molecule, the “morphological changes of platelets” value (platelets [4]) was “No morphological changes”.
In the case of methyl-β-cyclodextrin [MβCD], the “wavenumber excursion from −5 to 45° C.” value (erythrocyte membranes; Example 10, after cholesterol removal (control 0.7)) is reported as 2.9 cm⁻¹, the “wavenumber excursion from −5 to 45° C.” value (erythrocyte membranes; Example 11, after cholesterol removal (control 0.7)) is reported as 2.9 cm⁻¹ and the “Cooperativity, Low Transition” value (erythrocyte membranes; Table II, Example 10, 1 mM MβCD, 37° C., one hour) is reported as 0.051 ± 0.004 cm^−1/° C. For the same molecule, the “Cooperativity, High Transition” value (erythrocyte membranes; [5]) was 0.091 cm^−1/° C. and 0.091 ± 0.020 cm^−1/° C, the “Cooperativity, Low Transition” value (erythrocyte membranes; [5]) was 0.051 ± 0.004 cm^−1/° C and the “Cooperativity, Middle Transition” value (erythrocyte membranes; [5]) was 0.095 cm^−1/° C. and 0.095 ± 0.015 cm^−1/° C. The “Transition Temperature, High Transition” value (erythrocyte membranes; [5]) was 35 °C and 35.4 ± 1.5 °C, the “Transition Temperature, Low Transition” value (erythrocyte membranes; [5]) was 15 °C and 15.3 ± 0.8 °C and the “Transition Temperature, Middle Transition” value (erythrocyte membranes; [5]) was 26 °C and 26.0 ± 0.8 °C. The “transition temperature, first transition” value (erythrocyte ghosts) was 4 °C, the “transition temperature, fourth transition” value (erythrocyte ghosts) was 30 °C and the “transition temperature, second transition” value (erythrocyte ghosts) was 12 °C. For the same molecule, the “transition temperature, third transition” value (erythrocyte ghosts) was 20 °C.
